Reference: patent US20240041042A1, “1-(PYRIDYL)-5-AZINYLPYRAZOLE DERIVATIVES, AND THEIR USE FOR CONTROL OF UNDESIRED PLANT GROWTH” (Bayer Aktiengesellschaft, priority 2020, published 2024)
Where two headings read alike, the source gives them in different places.

Assays:
Format in all cases: in vivo
[1] = system: Abutilon theophrasti (ABUTH); test: Post-emergence herbicidal action against ABUTH; conditions: visual rating about 3 weeks after treatment vs untreated controls (100% = plants have died, 0% = like control plants)
Method in brief: (§1)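 Post-emergence greenhouse spray, one-leaf stage, 600 l/ha water plus 0.5% additive; WP or EC formulations; application rates 320 g/ha or lower. Visual % damage vs untreated controls at ~3 weeks.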

[2] = system: Alopecurus myosuroides (ALOMY); test: Post-emergence herbicidal action against ALOMY; conditions: visual rating about 3 weeks after treatment vs untreated controls (100% = plants have died, 0% = like control plants)
Method in brief: as §1

[3] = system: Amaranthus retroflexus (AMARE); test: Post-emergence herbicidal action against AMARE
Method in brief: as §1

Avena fatua (AVEFA) = test: Post-emergence herbicidal action against AVEFA; conditions: visual rating about 3 weeks after treatment
Method in brief: as §1

[4] = system: Digitaria sanguinalis (DIGSA); test: Post-emergence herbicidal action against DIGSA; conditions: visual rating about 3 weeks after treatment
Method in brief: as §1

[5] = system: Echinochloa crus-galli (ECHCG); test: Post-emergence herbicidal action against ECHCG
Method in brief: as §1

Lolium rigidum (LOLRI) = test: Post-emergence herbicidal action against LOLRI
Method in brief: as §1

[6] = system: Matricaria inodora (MATIN); test: Post-emergence herbicidal action against MATIN
Method in brief: as §1

[7] = system: Pharbitis purpurea (PHBPU); test: Post-emergence herbicidal action against PHBPU
Method in brief: as §1

[8] = system: Polygonum convolvulus (POLCO); test: Post-emergence herbicidal action against POLCO
Method in brief: as §1

Setaria viridis (SETVI) = test: Post-emergence herbicidal action against SETVI
Method in brief: as §1

[9] = system: Verconica persica (VERPE); test: Post-emergence herbicidal action against VERPE
Method in brief: as §1

Viola tricolor (VIOTR) = test: Post-emergence herbicidal action against VIOTR
Method in brief: as §1

Oryza sativa (ORYSA) = conditions: crop plant compatibility
Method in brief: (§2)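 Foliar application at the one-leaf stage: WP/EC formulation, 0.5% additive, 600 l/ha water. Greenhouse-grown in sandy loam. Endpoint is visual % injury relative to untreated controls at about 3 weeks.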

Zea mays (ZEAMX) = conditions: for Post-emergence action against ZEAMX in % (crop plant compatibility): 20 g/ha, effect in comparison to untreated controls; for Post-emergence action against ZEAMX in %: crop plant compatibility, 80 g/ha, effect vs untreated controls
Method in brief: as §2

[10] = 320 g/ha, visual rating about 3 weeks after treatment
[11] = 20 g/ha, effect vs untreated controls
[12] = 80 g/ha, visual rating about 3 weeks after treatment vs untreated controls (100% = plants have died, 0% = like control plants)

| Post-emergence action against ORYSA in % (Oryza sativa (ORYSA); [11]) | Post-emergence action against ZEAMX in % (crop plant compatibility) (Zea mays (ZEAMX)) | Structure (SMILES) | Post-emergence action against ABUTH in % ([1]; 320 g/ha) | Post-emergence action against ALOMY in % ([2]; 320 g/ha) | Post-emergence action against AMARE in % [3, 10] | Post-emergence action against AVEFA in % (Avena fatua (AVEFA); 320 g/ha) | Post-emergence action against DIGSA in % ([4]; 320 g/ha) | Post-emergence action against ECHCG in % ([5]; dosage 80 g/ha) | Post-emergence action against ECHCG in % ([5]; dosage 320 g/ha) | Post-emergence action against LOLRI in % (Lolium rigidum (LOLRI); dosage 80 g/ha) | Post-emergence action against LOLRI in % (Lolium rigidum (LOLRI); dosage 320 g/ha) | Post-emergence action against MATIN in % ([6]; dosage 320 g/ha) | Post-emergence action against PHBPU in % ([7]; dosage 320 g/ha) | Post-emergence action against POLCO in % ([8]; dosage 320 g/ha) | Post-emergence action against SETVI in % (Setaria viridis (SETVI); dosage 80 g/ha) | Post-emergence action against SETVI in % (Setaria viridis (SETVI); dosage 320 g/ha) | Post-emergence action against VERPE in % ([9]; 320 g/ha, VERPE) | Post-emergence action against VERPE in % ([9]; dosage 80 g/ha) | Post-emergence action against VIOTR in % (Viola tricolor (VIOTR); 80 g/ha) | Post-emergence action against VIOTR in % (Viola tricolor (VIOTR); 320 g/ha) | further results |
| --- | --- | --- | --- | --- | --- | --- | --- | --- | --- | --- | --- | --- | --- | --- | --- | --- | --- | --- | --- | --- | --- |
| 0% | 10% | O=C(COc1nn(-c2ncccc2F)c(-c2ccc(F)nc2)c1C1CC1)OCC1CCCO1 (stereo not drawn) [Example I-274] | 80% | 90% | 90% | 90% | 90% | 80% | 90% | 80% | 90% | 90% | 80% | 80% | 90% | 90% | 90% | 90% | 80% | 90% | Post-emergence action against ZEAMX in % (Zea mays (ZEAMX)): 20% |
| 0% | 0% | O=C(COc1nn(-c2ncccc2F)c(-c2ccc(F)nc2)c1C1CC1)OCC(F)(F)F [Example I-326] | 80% | 90% | 90% | 90% | 90% | 90% | 90% | 90% | 90% | 80% | 90% | 90% | 90% | 90% | 90% | 90% | 90% | 90% | Post-emergence action against ABUTH in % ([1]; 80 g/ha): 80%; Post-emergence action against ALOMY in % ([2]; 80 g/ha): 90%; Post-emergence action against AMARE in % [3, 12]: 90%; Post-emergence action against AVEFA in % (Avena fatua (AVEFA); 80 g/ha): 90%; Post-emergence action against DIGSA in % ([4]; 80 g/ha): 80%; Post-emergence action against PHBPU in % ([7]; dosage 80 g/ha): 80%; Post-emergence action against POLCO in % ([8]; dosage 80 g/ha): 80%; Post-emergence action against ZEAMX in % (Zea mays (ZEAMX)): 0% |
| 0% | 0% | CCCOC(=O)COc1nn(-c2ncccc2F)c(-c2ccc(F)nc2)c1C1CC1 [Example I-344] | 80% | 90% | 90% | 90% | 90% | 90% | 90% | 90% | 90% | 80% | 90% | 90% | 90% | 90% | 90% | 90% | 80% | 80% | Post-emergence action against ABUTH in % ([1]; 80 g/ha): 80%; Post-emergence action against ALOMY in % ([2]; 80 g/ha): 90%; Post-emergence action against AMARE in % [3, 12]: 90%; Post-emergence action against AVEFA in % (Avena fatua (AVEFA); 80 g/ha): 90%; Post-emergence action against DIGSA in % ([4]; 80 g/ha): 90%; Post-emergence action against MATIN in % ([6]; dosage 80 g/ha): 80%; Post-emergence action against PHBPU in % ([7]; dosage 80 g/ha): 90%; Post-emergence action against POLCO in % ([8]; dosage 80 g/ha): 80%; Post-emergence action against ORYSA in % (Oryza sativa (ORYSA); 80 g/ha, effect in comparison to untreated controls): 0%; Post-emergence action against ZEAMX in % (Zea mays (ZEAMX)): 0% |
| 0% | 0% | O=C(COc1nn(-c2ncccc2F)c(-c2ccc(F)nc2)c1C1CC1)OCC1CC1 [Example I-318] | 80% | 90% | 90% | 90% | 90% | 90% | 90% | 90% | 90% | 80% | 90% | 90% | 90% | 90% | 90% | 90% | 80% | 90% | Post-emergence action against ABUTH in % ([1]; 80 g/ha): 80%; Post-emergence action against ALOMY in % ([2]; 80 g/ha): 90%; Post-emergence action against AMARE in % [3, 12]: 90%; Post-emergence action against AVEFA in % (Avena fatua (AVEFA); 80 g/ha): 90%; Post-emergence action against DIGSA in % ([4]; 80 g/ha): 90%; Post-emergence action against MATIN in % ([6]; dosage 80 g/ha): 80%; Post-emergence action against PHBPU in % ([7]; dosage 80 g/ha): 90%; Post-emergence action against POLCO in % ([8]; dosage 80 g/ha): 90%; Post-emergence action against ZEAMX in % (Zea mays (ZEAMX)): 0% |
